Test results taken from patent US11185527B2, “Methods and compositions relating to steroid hormone receptor-dependent cancers” (Wayne State University, priority 2017, dated 2021).

How the values were obtained:
Assay in all cases: Cell monolayer growth assay (MTT)
22Rv1 cells = format: cell-based, human; details: enzalutamide up to 20 uM
Experimental: Twenty four hours after plating the 22Rv1 cells, they were treated with the indicated concentrations of KCI807 (FIG. 4C) or with the indicated concentrations of enzalutamide (ENZ) (FIG. 4D).
Twenty four hours after plating the cells, they were treated with the indicated concentrations of the compound.
FIG. 16D is a graph showing the effect of 5′-Fluoro-5,3′-Dihydroxyflavone at various concentrations on growth of 22Rv1 cells.
(§1) Cells were trypsinized and 3000-4000 cells/well were seeded in 96-well plates coated with poly-D-lysine. The cells were seeded in phenol red-free medium supplemented with 10% FBS, 100 units/ml penicillin, 100 μg/ml streptomycin, 2 mM L-glutamine mixture and sodium pyruvate (1 mM) for LNCaP cells and phenol red-free medium supplemented with 10% FBS, 100 units/ml penicillin, 100 μg/ml streptomycin and 2 mM L-glutamine mixture for VCaP, 22Rv1, DU145, HeLa, HEK293 and H1650 cells. The cells were grown at 37° C. in 5% CO2. Twenty four hours after seeding in the 96-well plates, the cells were treated with the indicated concentration of KCI807 or DMSO (vehicle). The cells were re-treated on Day 3 by removing half the volume of medium and replacing it with fresh treated medium. Cell viability was determined using the MTT assay from day zero until day five. MTT (10 μL, 5 mg/mL) was added to each well and incubated for 2h at 37° C. The formazan crystal sediments were dissolved in 100 μL of DMSO, and the absorbance at 570 nm was measured using the BioTek Synergy 2 Microplate Reader (BioTek, Winooski, Vt.). The assay was conducted in sextuplicate wells and values were normalized to day zero.

VCaP cells = format: cell-based
Experimental: as §1, with “Twenty four hours after plating the VCaP cells, they were treated with the indicated concentrations of KCI807 (FIG. 4G) or with the indicated concentrations of enzalutamide (ENZ) (FIG. 4H). […] Cells” for “Cells”

LNCaP cells = format: cell-based; details: enzalutamide up to 20 uM
Experimental: as §1, with “Twenty four hours after plating the LNCaP cells, they were treated with the indicated concentrations of KCI807 (FIG. 4E) or with the indicated concentrations of enzalutamide (ENZ) (FIG. 4F). […] Cells” for “Cells”

CNC(=O)c1ccc(N2C(=S)N(c3ccc(C#N)c(C(F)(F)F)c3)C(=O)C2(C)C)cc1F [enzalutamide]
growth inhibition of 22Rv1 cells (22Rv1 cells): only showed partial effects | growth inhibition of VCaP cells (VCaP cells): most sensitive | growth inhibition of LNCaP cells (LNCaP cells): only showed partial effects

O=c1cc(-c2cc(O)cc(F)c2)oc2cccc(O)c12 [5′-fluoro-5,3′-dihydroxyflavone]
growth inhibition of 22Rv1 cells (22Rv1 cells): inhibited growth | growth inhibition of VCaP cells (VCaP cells): inhibited growth | growth inhibition of LNCaP cells (LNCaP cells): inhibited growth

O=c1cc(-c2cccc(O)c2)oc2cccc(O)c12 [KCI807, 5,3′-dihydroxyflavone]
growth inhibition of 22Rv1 cells (22Rv1 cells): completely inhibited cell growth | growth inhibition of VCaP cells (VCaP cells): most sensitive | growth inhibition of LNCaP cells (LNCaP cells): completely inhibited cell growth
